Results: US20050232925A1, “Protease activity of thrombin inhibits angiogenesis” (priority 2002, published 2005)

Experiments:
HUVEC cells = test: In vitro angiogenesis (matrigel tube formation) assay; type: cell-based, human
Method: In Vitro Angiogenesis (matrigel tube formation) Assay. Unpolymerized matrigel (7 mg/ml) was placed in the wells (100 μl/well) of a pre-chilled 48-well cell culture plate and then incubated at 37° C. for 30-45 minutes. HUVEC cells were harvested in trypsin and resuspended in EC medium (4×10^4 in 300 μl). Cells were treated with the different agents before plated onto the matrigel-coated plates. […] Microphotographs of the center of each well at low power (40×) were taken with a SPOT camera (Diagnostic Instruments Inc; Sterling Heights, Mich.) and the aid of an imaging capture software (Compix Inc Imaging Systems; Township, Pa.). The microphotographs were quantitatively analyzed (total tube length) with the Simple PCI imaging analysis software (Compix).
Matrigel tube formation assays. Samples collected from the purification process were exchanged into 1×PBS and reconstituted into 1× concentration (by volume) compared to the input tPA/captopril-treated plasma. They were tested in the matrigel tube formation assays at 10% (v/v) as follows. Unpolymerized matrigel (7 mg/ml) was placed in the wells (100 μl/well) of a pre-chilled 48-well cell culture plate and then incubated at 37° C. for 30-45 minutes for polymerization to take place. […] Tube formation was examined (4× magnification) through an inverted phase contrast microscope (Nikon Corporation; Tokyo, Japan) and recorded by a Spot RT camera (Diagnostic Instruments Inc; Sterling Heights, Mich.) using an automated image capture software (Compix Inc Imaging Systems; Township, Pa.).

[1] = test system: blood vessels in bFGF-enriched matrigel plugs; test: In vivo matrigel-plug assay, agent mixed into matrigel; set-up: species or system mice
Method: In vivo matrigel-plug assays. The matrigel-plug assay was performed as described in Maeshima et al., (Maeshima et al., J Biol Chem 275:21340-8, 2000; Maeshima et al., J Biol Chem 276:31959-68, 2001) with modifications as follows. Briefly, 500 μl of unpolymerized matrigel at a concentration of 10 mg/ml enriched with bFGF (250 ng/ml) were mixed with one of the following: PBS (vehicle), prothrombin, or TRAP. Each mixture was injected subcutaneously at the left lower abdominal wall of C57/B mice (5 to 6-week old; Jackson laboratories; Bar Harbor, Me.). At day ten, the mice were sacrificed. The matrigel plugs were then excised, fixed in 4% paraformaldehyde, embedded in paraffin, sectioned, and H&E stained. Sections were examined by light microscopy, and the total number of blood vessels from 10 high power fields (400×) were counted in a blinded fashion. Only the micro-vessels containing red blood cells were counted as positive. Results shown represent the average of counts from 4 to 5 matrigel plugs per group.

[2] = test system: microvessels in bFGF-containing matrigel plugs; test: In vivo angiogenesis (matrigel plug) assay, systemic treatment; set-up: species or system mice; settings: rt-PA 60 μg subcutaneously/day, captopril 150 μg intraperitoneally/day, 10 days
Method: In Vivo Angiogenesis (Matrigel Plug) Assay. The matrigel-plug assay was performed as described in Maeshima et al., (Maeshima et al., J Biol Chem 275:21340-8, 2000; Maeshima et al., J Biol Chem 276:31959-68, 2001) with modifications as follows. All animal studies were reviewed and approved by the animal care and use committee of Beth Israel Deaconess Medical Center and are in accordance with the guidelines of the department of Health and Human Services. Five to six week-old male C57/BL6 mice (The Jackson Laboratories; Bar Harbor, Me.) were injected subcutaneously at the left lower abdominal wall with 0.5 ml of unpolymerized matrigel supplemented with 500 ng/ml of basic fibroblast growth factor for the stimulated controls and treatment groups and with equivalent volume of sterile PBS for the unstimulated (no b-FGF) control group. Mice (3 per group) were treated for 10 days with: 1) rt-PA (60 μg subcutaneously/day) and captopril (150 μg intraperitoneally/day). 2) Subcutaneous rt-PA alone with equivalent volume of intraperitoneal (IP) PBS. 3) IP captopril (150 μg) with equivalent volume of subcutaneous PBS. 4) Equivalent volumes of PBS (subcutaneously and intraperitoneally). […] Sections were examined by light microscopy, and the total number of blood vessels from 10 high power fields (400× magnification) were counted in a blinded fashion. […]

[3] = test system: 4T1 murine breast cancer cell line; test: Primary tumor growth of transfected 4T1 cells in BALB/c mice; type: in vivo; settings: stable expression in 4T1 cells, mammary pad of BALB/c mice, vs empty vector, five weeks
Description: Construction of mutant uPA clones and cell transfection. We chose to pursue a genetic approach, in which we stably transfected an aggressive and highly metastatic murine breast cancer cell line (4T1) with the genes for wild type uPA, tPA and a receptor binding mutant of uPA (uPAm). We inserted the cDNA encoding murine tPA into pcDNA 3.1 (+) (Invitrogen), a CMV driven mammalian expression vector, by restriction enzyme digestion of BamHI and NheI. Wild type uPA cDNA was inserted to the pcDNA 3.1 (+) expression vector and the transfected into 4T1 cells in a similar fashion as described for the tPA cDNA. Residues 22, 27, 29 and 30 on the growth factor domain of the murine uPA molecule have been implicated in binding to mouse uPAR.
The pcDNA 3.1-tPA, pcDNA 3.1-wild type uPA, pcDNA 3.1-uPAm constructs, as well as an empty vector control were introduced into 4T1 cells by transfection using lipofectamine (Gibco-BRL) reagent. We selected 12-14 stable single clones in each group with 500 ug/mL of hygromycin. Each of the clones was evaluated for generation of the gene of interest by northern blot. The clones that had the highest generation of the genes of interest were selected. […]
Experiments using transfected tumor cells. […] Primary tumor size was measured every other day for a total of five weeks using calipers and calculated using the standard formula (width2×length×0.52). […]

platelet aggregation = settings: phenylalanine to alanine mutation at position 2; cited from earlier work

## GYPGKF
HUVEC cells; 100 μM peptide
  endothelial cell tube formation: little effect on tube formation

## bFGF: basic fibroblast growth factor (Peprotech), proangiogenic stimulant
[1]; 250 ng/ml bFGF vs no bFGF
  increase in angiogenesis in matrigel plugs: seven-fold increase

## SLIGKV
HUVEC cells; 100 μM peptide
  endothelial cell tube formation: little effect on tube formation

## SFLLRNPNDKYEPF [TRAP]
[1]; 250 ng/ml bFGF, day 10, 10 ρg/ml prothrombin, 250 μM TRAP (FIG. 13)
  reduction of bFGF-stimulated blood vessel formation in matrigel plugs: significantly reduced
HUVEC cells; 1, 10, 100 μM TRAP
  endothelial cell tube formation: dose-dependently inhibited endothelial cell tube formation

## C[C@H](CS)C(=O)N1CCC[C@H]1C(=O)O [captopril]
HUVEC cells; in the absence of plasma, rt-PA 1 μg/ml, captopril 0.1 μM
  inhibition of tube formation: did not cause significant inhibition of tube formation
[2]
  microvessel counts in matrigel plugs: did not show major reduction of neovascularization

## Angiostatin
HUVEC cells; 10 μg/ml
  inhibition of tube formation: did not significantly inhibit tube formation
HUVEC cells; 50 μg/ml
  inhibition of tube formation: did not significantly inhibit tube formation

## wildtype uPA: murine wild type uPA expressed from pcDNA 3.1 in 4T1 cells
[3]
  inhibition of primary tumor growth: significantly inhibit tumor cell growth

## thrombin
HUVEC cells; thrombin at 5 U/ml (FIGS. 11D, 11E: 1 and 5 U/ml)
  endothelial cell tube formation: minimal effects on endothelial cell tube formation
HUVEC cells; thrombin at 10 U/ml
  endothelial cell tube formation: significantly inhibits tube formation

## SALLRN
Platelet aggregation
  ability to induce platelet aggregation in vitro: completely eliminated the ability of the peptide to induce platelet aggregation
HUVEC cells; 100 μM peptide
  endothelial cell tube formation: no inhibitory effect

## SFLLRN
HUVEC cells; 50 and 100 μM SFLLRN
  endothelial cell tube formation: dose-dependent inhibitory effect on endothelial cell tube formation

## lepirudin
HUVEC cells; 10 U/ml thrombin with 200 U/ml lepirudin
  block of thrombin inhibition of tube formation: completely blocked
HUVEC cells; lepirudin alone at 200 U/ml
  endothelial cell tube formation: no effects in endothelial cell tube formation
HUVEC cells; prothrombin with 200 U/ml lepirudin
  block of prothrombin inhibition of tube formation: completely blocked
